Results reported in patent US20260174778A1, “SULFONAMIDE COMPOUND, AND PREPARATION METHOD THEREFOR AND USE THEREOF” (SHANGHAI HENLIUS BIOTECH, INC., priority 2023, published 2026).

System: breast cancer cell line ZR-75-1
Assay: Inhibition of proliferation of breast cancer cell line ZR-75-1 (CellTiter-Glo)
Type: cell-based
Conditions: Homo sapiens, 240 h, proliferation of ZR-75-1 cells, 10 days of incubation, read-out: IC50 (KAT6A)
Description: Test Example 1: Experiment for Determining Inhibitory Effects of Compounds on Proliferation of Breast Cancer Cell Line ZR-75-1
ATP is an indicator of the metabolism of living cells. The CellTiter-Glo® Luminescent Cell Viability Assay is a homogeneous assay method for determining the number of viable cells by quantifying ATP.
• 1) ZR-75-1 (Cell Bank of Chinese Academy of Sciences, TCHul26) • 2) RPMI-1640 medium (Gibco, 11875-093) • 3) Fetal Bovine Serum, New Zealand (Gibco,10091-148) • 4) Penicillin-streptomycin (10,000 U/mL) (Gibco, 15140-122) • 5) Trypsin-EDTA (0.25%), containing phenol red (Gibco, 25200-072) • 6) DPBS (Shanghai BasalMedia, B210KJ) • 7) Corning® 96-well Clear Flat Bottom Ultra-Low Attachment Microplate (Corning, Cat. No. 3474) • 8) 330 μL 96 Holes Deep Well Plate, transparents, 96 Round Holes, V-shaped Bottom, Low Retention (Stellar Scientific, DP33VR-9-NS) • 9) Corning® 96-well solid white flat-bottom polystyrene microplate (Corning, Cat. No. 3917) • 10) CellTiter-Glo® Luminescent Cell Viability Assay (Promega, G7573) • 11) Countstar® BioMed automatic cell counter • 12) Trypan blue solution, 0.4% (Gibco, Cat. No. 15250061) • 13) 37° C. constant-temperature incubator (Thermo, FORMA STERI-CYCLE i160 LK) • 14) Biosafety cabinet (Thermo, 1379)
• 1) The formula of the complete medium for ZR-75-1 was as follows: 500 mL RPMI-1640+10% FBS+1% penicillin-streptomycin. • 2) Thirty minutes before cell plating, the complete medium, serum, trypsin, and DPBS for use in ZR-75-1 cell culture were pre-warmed in a water bath at 37° C. • 3) The ZR-75-1 cells were taken out of the incubator, and the medium was removed by pipetting. The cells were rinsed once with 5 mL of DPBS, and then the DPBS was discarded. • 4) The cells in the T75 culture flask were digested with 1-3 mL of (0.25%) trypsin-EDTA. After the trypsin was added, the culture flask was incubated in an incubator at 37° C. for 2-5 min, and dispersion was confirmed by microscopic examination. Tapping or agitating the culture flask was avoided to prevent disturbing the cells, which might cause cell clumping. • 5) 9 mL of the complete medium was added to terminate the digestion, thus forming a cell suspension, which was then mixed well by pipetting. • 6) Cell suspension counting: 20 μL of the cell suspension was pipetted and diluted with 20 µL of the 0.4% trypan blue solution (Gibco, Cat. No. 15250061). The total cell count and the percentage of cell viability were determined using the Countstar® BioMed automatic cell counter. Only cells with a cell viability of no less than 95% were used for the experiment. • 7) The concentration of the cell suspension was adjusted to 2000 cells/well, and the cell suspension was added to a 96-well cell culture plate at 80 μL/well. Treatment of Cells with Compounds • 1) Twenty-four hours after cell plating, the cell plate was taken out. • 2) Each compound was prepared with a complete medium. The stock solution was a 10 mM solution in DMSO, which was first diluted with the medium to 100 μM, then diluted to 1 μM, and finally subjected to a 5-fold serial dilution across a total of 9 concentration gradients. • 3) 20 μL of the compound diluted with the medium was added to each well of the cell culture plate, which already contained 80 μL of the medium. The final concentration started at 200 nM, followed by a 5-fold serial dilution across a total of 9 concentration gradients. Two replicate wells were set for each compound, and each plate could be used to test 3 compounds, with the DMSO content controlled within 0.5%. • 4) The culture medium was replenished once every three days with a complete medium containing the same concentration of the test compound, with 20 μL/well added each time.
After 10 days of incubation with the compound, the cell culture plate was taken out, and the CellTiter-Glo® reagent was added at 50 μL/well. […]

SMILES | IC50 [nM]
COc1ccc2c(c1S(=O)(=O)Nc1noc3cc(Cn4cccn4)cc(OC)c13)OC(C)(C)O2 [Compound 18, N-(6-((1H-Pyrazol-1-yl)methyl)-4-methoxybenzo[d]isoxazol-3-yl)-5-methoxy-2,2-dimethylbenzo[d][1,3]dioxole-4-sulfonamide] | 2 to 10
COc1cccc(OC)c1S(=O)(=O)Nc1nnc2cc(Cn3cccn3)cc(OC)n12 [Compound 58, N-(7-((1H-Pyrazol-1-yl)methyl)-5-methoxy-[1,2,4]triazolo[4,3-a]pyridin-3-yl)-2,6-dimethoxybenzenesulfonamide] | ≥ 50
COc1ccc2c(c1S(=O)(=O)Nc1noc3cc(Cn4cccn4)c(F)c(OC)c13)OCCC21SCCS1 [Compound 44, N-(6-((1H-Pyrazol-1-yl)methyl)-5-fluoro-4-methoxybenzo[d]isoxazol-3-yl)-7-methoxyspiro[chromane-4,2′-[1,3]dithiolane]-8-sulfonamide] | < 0.5
COc1ccc2c(c1S(=O)(=O)Nc1noc3cc(Cn4cccn4)c(F)c(OC)c13)OCCC2(C)C [Compound 27, N-(6-((1H-Pyrazol-1-yl)methyl)-5-fluoro-4-methoxybenzo[d]isoxazol-3-yl)-7-methoxy-4,4-dimethylchromane-8-sulfonamide] | < 0.5
COc1ccc2c(c1S(=O)(=O)Nc1noc3cc(Cn4cccn4)c(F)c(OC)c13)OCCN2CC(F)(F)F [Compound 120, N-(6-((1H-Pyrazol-1-yl)methyl)-5-fluoro-4-methoxybenzo[d]isoxazol-3-yl)-7-methoxy-4-(2,2,2-trifluoroethyl)-3,4-dihydro-2/-benzo[b][1,4]oxazine-8-sulfonamide] | 2 to 10
COc1ccc2c(c1S(=O)(=O)Nc1noc3cc(Cn4cccn4)c(F)c(Cl)c13)OCCC21CC1 [Compound 49, N-(6-((1H-Pyrazol-1-yl)methyl)-4-chloro-5-fluorobenzo[d]isoxazol-3-yl)-7-methoxyspiro[chromane-4,1′-cyclopropane]-8-sulfonamide] | 2 to 10
COc1ccc(C(C)(C)O)cc1S(=O)(=O)Nc1noc2cc(Cn3cccn3)cc(OC)c12 [Compound 13, N-(6-((1H-Pyrazol-1-yl)methyl)-4-methoxybenzo[d]isoxazol-3-yl)-5-(2-hydroxypropan-2-yl)-2-methoxybenzenesulfonamide] | 0.5 to 2
COc1ccc2c(c1S(=O)(=O)Nc1noc3cc(Cn4cccn4)cc(OC)c13)OCCN2C [Compound 41, N-(6-((1H-Pyrazol-1-yl)methyl)-4-methoxybenzo[d]isoxazol-3-yl)-7-methoxy-4-methyl-3,4-dihydro-2H-benzo[b][1,4]oxazine-8-sulfonamide] | 0.5 to 2
COc1ccc2c(c1S(=O)(=O)Nc1noc3cc(Cn4cccn4)c(F)c(Cl)c13)OCCO2 [Compound 32, N-(6-((1H-Pyrazol-1-yl)methyl)-4-chloro-5-fluorobenzo[d]isoxazol-3-yl)-6-methoxy-2,3-dihydrobenzo[b][1,4]dioxine-5-sulfonamide] | 2 to 10
COc1ccc2c(c1S(=O)(=O)Nc1noc3cc(Cn4cccn4)c(F)c(Cl)c13)OCCC2=O [Compound 48, N-(6-((1H-Pyrazol-1-yl)methyl)-4-chloro-5-fluorobenzo[d]isoxazol-3-yl)-7-methoxy-4-oxochromane-8-sulfonamide] | 0.5 to 2
COc1ccc2c(c1S(=O)(=O)Nc1noc3cc(Cn4cccn4)cc(OC)c13)OCCO2 [Compound 14, N-(6-((1H-Pyrazol-1-yl)methyl)-4-methoxybenzo[d]isoxazol-3-yl)-6-methoxy-2,3-dihydrobenzo[b][1,4]dioxine-5-sulfonamide] | 0.5 to 2
COc1cccc(OC)c1S(=O)(=O)Nc1noc2cc(Cn3cccn3)cc(OC(F)F)c12 [Compound 12, N-(6-((1H-Pyrazol-1-yl)methyl)-4-(difluoromethoxy)benzo[d]isoxazol-3-yl)-2,6-dimethoxybenzenesulfonamide] | 2 to 10
COc1cccc(OC)c1S(=O)(=O)Nc1noc2cc(Cn3cccn3)c(F)c(OC)c12 [PF-0128, reference compound] | 0.5 to 2
COc1ccccc1S(=O)(=O)Nc1noc2cc(Cn3cccn3)cc(OC(F)F)c12 [Compound 11, N-(6-((1H-Pyrazol-1-yl)methyl)-4-(difluoromethoxy)benzo[d]isoxazol-3-yl)-2-methoxybenzenesulfonamide] | 2 to 10
COc1ccc2c(c1S(=O)(=O)Nc1noc3cc(Cn4cccn4)c(F)c(OC)c13)OCCC21CCC1 [Compound 72, N-(6-((1H-Pyrazol-1-yl)methyl)-5-fluoro-4-methoxybenzo[d]isoxazol-3-yl)-7-methoxyspiro[chromane-4,1′-cyclobutane]-8-sulfonamide] | 0.5 to 2
COc1ccc2c(c1S(=O)(=O)Nc1noc3cc(Cn4cccn4)cc(Cl)c13)OCCC2=O [Compound 45, N-(6-((1H-Pyrazol-1-yl)methyl)-4-chlorobenzo[d]isoxazol-3-yl)-7-methoxy-4-oxochromane-8-sulfonamide] | 2 to 10
CC(C)Oc1cc(Cn2cccn2)cc2onc(NS(=O)(=O)c3cc(C(C)(C)C)ccc3OC3CCC3)c12 [Compound 6, N-(6-((1H-Pyrazol-1-yl)methyl)-4-isopropoxybenzo[d]isoxazol-3-yl)-5-(tert-butyl)-2-cyclobutoxybenzenesulfonamide] | 2 to 10
COc1ccc2c(c1S(=O)(=O)Nc1noc3cc(Cn4cccn4)cc(OC)c13)OCCC21CC1 [Compound 35, N-(6-((1H-Pyrazol-1-yl)methyl)-4-methoxybenzo[d]isoxazol-3-yl)-7-methoxyspiro[chromane-4,1′-cyclopropane]-8-sulfonamide] | < 0.5
COc1cccc(OC)c1S(=O)(=O)Nc1nsc2cc(Cn3cccn3)cc(OC)c12 [Compound 24, N-(6-((1H-Pyrazol-1-yl)methyl)-4-methoxybenzo[d]isothiazol-3-yl)-2,6-dimethoxybenzenesulfonamide] | 10 to 50
COc1ccc2c(c1S(=O)(=O)Nc1noc3cc(Cn4cccn4)cc(OC)c13)OCCC2(F)F [Compound 102, N-(6-((1H-Pyrazol-1-yl)methyl)-4-methoxybenzo[d]isoxazol-3-yl)-4,4-difluoro-7-methoxychromane-8-sulfonamide] | 0.5 to 2
COc1ccc2c(c1S(=O)(=O)Nc1noc3cc(Cn4cccn4)c(F)c(OC)c13)OCCC2O (stereo not drawn) [Compound 107, N-(6-((1H-Pyrazol-1-yl)methyl)-5-fluoro-4-methoxybenzo[d]isoxazol-3-yl)-4-hydroxy-7-methoxychromane-8-sulfonamide] | 0.5 to 2
COc1cc(Cn2cccn2)cc2onc(NS(=O)(=O)c3cccc4c3OCO4)c12 [Compound 4, N-(6-((1H-Pyrazol-1-yl)methyl)-4-methoxybenzo[d]isoxazol-3-yl)benzo[d][1,3]dioxole-4-sulfonamide] | 10 to 50
COc1ccc2c(c1S(=O)(=O)Nc1noc3cc(Cn4cccn4)cc(Cl)c13)OCCC21SCCS1 [Compound 47, N-(6-((1H-Pyrazol-1-yl)methyl)-4-chlorobenzo[d]isoxazol-3-yl)-7-methoxyspiro[chromane-4,2′-[1,3]dithiolane]-8-sulfonamide] | 0.5 to 2
COc1ccc2c(c1S(=O)(=O)Nc1noc3cc(Cn4cccn4)cc(OC)c13)OCCC21CCC1 [Compound 15, N-(6-((1H-Pyrazol-1-yl)methyl)-4-methoxybenzo[d]isoxazol-3-yl)-7-methoxyspiro[chromane-4,1′-cyclobutane]-8-sulfonamide] | < 0.5
